Laboratory results as given in patent US20220073557A1, “FLUORINATED BILE ACIDS” (NZP UK LIMITED, priority 2018, published 2022).
Like-named read-outs stand apart in the source and are kept apart here.

Assays:
[1] = tested on: sAD and familial AD (PSEN1 mutants) patient fibroblasts; assay: Total cellular ATP levels in Alzheimer's disease patient fibroblasts; type: cell-based, human; details: 24 hour treatment at 100 nM, 21% restores to control levels
Procedure: Briefly, fibroblasts were cultured as and plated into white 384 well plates with 5000 cells per well in 50 μl of media volume. The plates are left overnight in an incubator to allow the fibroblasts to adhere to the plate surface. The following morning the Glucose based medium is replaced with 25 μl of Galactose based medium. The compounds are added to the plates using a ECHO 550 liquid handling system. The wells were dosed to provide an 8-point concentration range of 0.06 nM-300 nM of compound. After dosing the wells are topped up with a further 25 μl of Galactose based medium and then left in an incubator for 24 hours. Following this incubation the medium is removed from the plate and the wells are washed twice with sterile PBS. The wells are filled with 25 μl of Sterile PBS followed by 12.5 μl of Lysis solution from the ATPlite™ Luminescence ATP detection assay system (Perkin Elmer), including 16 cell free wells to use as blank controls. The plate is then placed on a rotary shaker for 5 mins at 700 rpm. Following the shaking 12.5 μl of ATP substrate solution (Perkin Elmer) is added to each well and a further 5 min of shaking. The plate is then placed in darkness for 10 minutes prior to reading. Using a PHERAStar® plate reader, luminescence intensity is recorded. Following the ATP assay the plates are immediately assayed for DNA content in a CyQUANT® assay.
Immediately following The ATP assay DNA content is assessed with the CyQUANT® NF Cell Proliferation Assay Kit (ThermoFisher). CyQUANT® buffer is prepared immediately before the assay and is comprised of 1 ul CyQUANT® dye per ml×1 HBSS solution. 12.5 ul of CyQUANT® buffer is added to each well. Plate left in incubator for 1 hour then read on a PHERAStar® Plate reader with excitation at 497 nm and emission at 520 nm.
Data shown in the Table 6 below is the mean increase in ATP levels after 24 hour treatment with compounds at 100 nM concentration.

[2] = tested on: sporadic PD patient fibroblasts; assay: Mitochondrial membrane potential (MMP, TMRM) in sporadic PD patient fibroblasts; type: cell-based; details: Homo sapiens, Fibroblast, 24 h
Procedure: (§1) Fibroblasts were cultured in DMEM (Invitrogen) and routinely subcultured every 3-5 days using trypsin to dissociate them.
Fibroblasts were cultured and plated into a Griener black 384 pClear® plate at 10000 cells per well in 50 μl of media volume. The plates are left overnight in an incubator to allow the fibroblasts to adhere to the plate surface. The following morning the Glucose based medium is replaced with 25 μl of Galactose based media. The plates were then dosed with the compounds using an ECHO® 550 liquid handling system. The wells were dosed to provide an 8-point concentration range of 0.06 nM-300 nM of compound. After dosing the wells are topped up with a further 25 μl of Galactose based medium and then left in an incubator for 24 hours. After 24 hours, the medium is removed from the wells and replaced with 25 ul phenol free Minimal essential medium with 100 nM TMRM (Sigma) and 10 μM Hoechst Stain (Sigma). The plate is returned to the incubator for another hour after which the stain medium is removed and replaced with 25 ul Phenol free MEM. The plate is then imaged using an IN Cell high content microscope (GE Healthcare) with 10 fields of view per well in 2 channels, Cy3 excitation 542 nm, emission 604-64 nm; and the DAPI excitation 350 nm, emission 450-55 nm at 37° C. with CO2. After imaging the plate is disposed of and the images are Data mined using the INCell developer Toolkit (GE Healthcare).
After the assays had been repeated in triplicate per line and compound the data was then inputted into Graph pad Prism 7 software suite where a dose response curve is generated using the default “[Agonist] vs response (three parameters)” equation.
From this EC50 values, lowest response and maximal response were taken and used to calculate the Geometric mean between the 5 different lines assessed.
The mitochondrial membrane potential was measured in fibroblasts from 6 (Table 1) or 3 (Table 2) patients with sporadic Parkinson's disease when treated with Compounds of the invention or Comparator compounds. The results are shown in Tables 1 and 2, where “Bottom”=max response with lowest dose of compound (0.06 nM) and “top”=max response with highest dose of compound (300 nM).

[3] = tested on: dopaminergic neurons derived from sPD patients (iNeurons); assay: Activated caspase 3 immunofluorescence staining in iNeurons; type: cell-based, human; details: untreated sPD 162
Procedure: (§2) Briefly, iNPCs are plated in a 6-well plate and cultured for 2 days in DMEM/F-12 medium with Glutamax™ supplemented with 1% NEAA, 2% B27 (Gibco) and 2.5 μM of DAPT. On day 3, DAPT is removed and the medium is supplemented with 1 μM smoothened agonist (SAG) and FGF8 (75 ng/ml) for additional 10 days. Neurons are replated at this stage. Subsequently SAG and FGF8 are withdrawn and replaced with BDNF (30 ng/ml), GDNF (30 ng/ml), TGF-b3 […] and dcAMP (2 mM, Sigma) for 15 days.
Cells are plated into 96 well plates and fixed using 4% paraformaldehyde for 30 minutes. After PBS washes cells are permeabilised using 0.1% Triton™ X-100 for 10 minutes and blocked using 5% goat serum for 1 hour. Cells are incubated with primary antibodies tyrosine hydroxylase (St John's Laboratory); DAT (Abcam); Tuj (Millipore); Tom20 (BD Biosciences); activated caspase 3 (Cell Signaling); alpha synuclein (Cell Signaling); phosphorylated alpha synuclein (Millipore) at 4° C. for 16 hours. Cells are washed using PBS-Tween® and incubated with Alexa Fluor™-conjugated secondary antibodies 488 and 568 (Invitrogen) and Hoescht (Sigma) 1 μM prior to imaging. Imaging was performed using the Opera Phenix™ high content imaging system (Perkin Elmer).

[4] = tested on: dopaminergic neurons derived from sPD patients (iNeurons); assay: Mitochondrial function and neuronal morphology measurements in iNeurons from sPD patients; type: cell-based, human; details: for EC50: Homo sapiens, Neuron
Procedure: as §1, §2
Cells are plated in 96 well plates; for live imaging cells are incubated for one hour at 37 degree with 80 nM tetramethlyrhodamine (TMRM), 1 μM LysoTracker® Green (Invitrogen) and Hoechst Stain solution (Sigma) at 1 μM before imaging using Opera Phenix™. Cellular ATP measurements are undertaken using ATPlite kit (Perkin Elmer) as per manufacturer's instructions. Mitochondrial reactive oxygen species generation was assessed using mitochondrial NpFR2 (probe; a kind gift from Dr Liz New, University of Sydney, Australia) at 20 μM and Hoechst stain solution at 1 μM for 30 mins at 37° C., then the dyes are removed and cells images using Opera Phenix™. Images generated from the live imaging experiments were analysed using Harmony® (Perkin Elmer software). We developed protocols in order to segment nucleus, cell boundary and processes, mitochondria, lysosomes, autophagosomes. We only analysed the z projection images collected from the z stacks.

[5] = tested on: mitochondrial respiratory chain complex I; assay: Complex I assay, left striatum brain homogenate of mice dosed with or without MPTP; type: in vivo, mouse; details: for Complex I activity with concurrent MPTP treatment: left striatum
Procedure: (§3) Ex vivo mice brain was homogenated in a buffer of 250 mM sucrose, 20 mM HEPES, 3 mM EDTA, pH 7.5 at 4° C. Homogenisation was carried out using a Dounce homogenizer, for cortex samples, and by repetitive passage through a 0.5 mm syringe for isolated striatum. Samples were then incubated with 30 μl of detergent from the AbCam colorimetric Complex I assay kit on ice for 20 minutes. Samples are then centrifuged at 13,000 rpm for 30 mins. Triplicate samples per condition were blocked using the kit blocking buffer on the AbCam colorimetric Complex I assay kit plate for 3 hours. Samples are then washed using the kit wash buffer 3 times before the addition of the kit assay buffer containing NADH and colorimetric dye. The assay plate is read on a plate reader in a kinetic assay programme reading 450 nm in a 30 second interval for 50 minutes.

[6] = tested on: mitochondrial respiratory chain complex I; assay: Complex I assay, whole brain homogenate of dosed wild type mice; type: in vivo; details: wild type mouse whole brain homogenate, FIG. 3
Procedure: as §3

C[C@H](CCC(=O)O)[C@H]1CC[C@H]2[C@@H]3[C@@H](O)C[C@@H]4C[C@@H](O)C(F)(F)C[C@]4(C)[C@H]3CC[C@]12C [Compound 7, 2,2-difluoro-3β,7β-dihydroxy-5β-cholanic acid]
% increase over vehicle treated (mean increase in ATP levels) [1]: 24%
activity at 60 pM ([2]; read-out: MMP Bottom (% of vehicle treated)): 100%
EC50 ([2]; read-out: MMP EC50 (nM)): 4.07 nM
activity at 0.3 µM ([2]; read-out: MMP Top (% of vehicle treated)): 114%
Activated caspase 3 levels [3]: 100 % of level in iNeurons from Controls
EC50 ([4]; read-out: ATP EC50 (nM)): 0.8 nM
EC50 ([4]; read-out: MMP EC50 (nM)): 0.52 nM
Neuronal morphology (elongation; % controls) ([4]; iNeurons from sPD patients, untreated sPD 48): 78 % controls
ATP normalisation (% of controls) ([4]; iNeurons from sPD patients, untreated sPD 50): 101 % of controls
MMP normalisation (% of controls) ([4]; iNeurons from sPD patients, untreated sPD 52): 100 % of controls
ROS (Normalisation) (% controls) ([4]; iNeurons from sPD patients, untreated sPD 115): 103 % controls
Increase in complex I activity over untreated controls ([5]; left striatum mouse brain homogenate, Vehicle+12 mg Compound 7 alone, FIG. 4): approximately 30%
Complex I activity with concurrent MPTP treatment ([5]; MPTP + 1 mg Compound 7, p<0.01 vs MPTP alone): retains complex I at normal levels
Complex I activity with concurrent MPTP treatment ([5]; MPTP + increased doses (4 mg, 12 mg) of Compound 7): appears to prevent any loss of complex I activity by MPTP
Increase in Complex I activity compared to untreated controls ([6]; 4 mg/kg dose): approximately 380%
Increase in Complex I activity compared to untreated controls ([6]; 12 mg/kg dose): approximately 800%
